{"source": "patent US9944654B2", "about": "“Nargenicin compounds and uses thereof as antibacterial agents” (priority 2014, dated 2018)", "key": {"[1]": {"system": "Drug susceptible M. tuberculosis clinical isolates", "type": "cell-based, Mycobacterium tuberculosis"}, "[2]": {"biological_target": "T1, E. coli DnaE (DNA polymerase III α-subunit from Escherichia coli) (Escherichia coli, UniProt P10443)", "T1 construct": "EcDnaE (E. coli DnaE residues 1-1160); 6xHis (N); made in house; host or cells: E. coli BL21(DE3)", "T1 sequence (P10443 whole entry, the tested form may be a part)": "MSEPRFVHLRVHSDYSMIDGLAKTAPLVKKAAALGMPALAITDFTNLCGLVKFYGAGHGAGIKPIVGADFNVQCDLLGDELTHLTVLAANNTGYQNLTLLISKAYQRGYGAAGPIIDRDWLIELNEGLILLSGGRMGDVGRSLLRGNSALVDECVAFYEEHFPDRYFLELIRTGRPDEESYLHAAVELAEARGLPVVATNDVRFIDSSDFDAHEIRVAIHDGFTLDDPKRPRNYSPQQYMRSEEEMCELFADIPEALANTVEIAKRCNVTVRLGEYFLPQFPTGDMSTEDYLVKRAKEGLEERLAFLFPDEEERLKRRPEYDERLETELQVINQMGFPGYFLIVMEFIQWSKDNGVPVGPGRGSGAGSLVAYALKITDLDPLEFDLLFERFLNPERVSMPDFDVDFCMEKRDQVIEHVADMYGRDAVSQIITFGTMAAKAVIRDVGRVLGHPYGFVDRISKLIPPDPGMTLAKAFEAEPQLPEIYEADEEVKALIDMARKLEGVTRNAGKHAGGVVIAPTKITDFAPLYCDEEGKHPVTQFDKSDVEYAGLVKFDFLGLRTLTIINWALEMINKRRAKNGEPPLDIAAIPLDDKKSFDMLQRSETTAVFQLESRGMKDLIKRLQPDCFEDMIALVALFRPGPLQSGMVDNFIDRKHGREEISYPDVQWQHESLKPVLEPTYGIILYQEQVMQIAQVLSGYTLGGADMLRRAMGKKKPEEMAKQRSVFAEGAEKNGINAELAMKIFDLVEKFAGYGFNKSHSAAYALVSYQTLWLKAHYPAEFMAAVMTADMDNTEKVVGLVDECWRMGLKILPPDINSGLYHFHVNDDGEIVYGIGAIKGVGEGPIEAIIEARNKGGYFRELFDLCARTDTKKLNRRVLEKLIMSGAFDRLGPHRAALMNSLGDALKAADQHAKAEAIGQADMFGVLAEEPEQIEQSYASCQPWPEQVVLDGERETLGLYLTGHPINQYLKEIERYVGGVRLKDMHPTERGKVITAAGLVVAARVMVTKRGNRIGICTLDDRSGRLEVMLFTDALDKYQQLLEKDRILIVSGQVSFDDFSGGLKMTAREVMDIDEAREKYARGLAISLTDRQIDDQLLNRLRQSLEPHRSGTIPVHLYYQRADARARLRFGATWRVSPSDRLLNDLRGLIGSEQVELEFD", "test": "In vitro DnaE single enzyme assay (E. coli)", "type": "biochemical", "procedure,_shortened": "(§1)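 3H-dTTP (0.011 mM) incorporation into DNase I-activated calf thymus DNA, alongside the other three dNTPs at 0.025 mM, measured by filter counting after TCA precipitation. Reactions ran 30 min at 30° C., started with purified N-His DnaE: 0.8 μg/ml for E. coli, 0.05 μg/ml for S. aureus.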"}, "[3]": {"biological_target": "T2, S. aureus DnaE (DNA polymerase III α-subunit homolog from Staphylococcus aureus) (Staphylococcus aureus, UniProt Q5HF71)", "T2 construct": "SaDnaE (S. aureus DnaE residues 1-1065); 6xHis (N); made in house; host or cells: E. coli BL21-AI", "T2 sequence (Q5HF71 1-1065)": "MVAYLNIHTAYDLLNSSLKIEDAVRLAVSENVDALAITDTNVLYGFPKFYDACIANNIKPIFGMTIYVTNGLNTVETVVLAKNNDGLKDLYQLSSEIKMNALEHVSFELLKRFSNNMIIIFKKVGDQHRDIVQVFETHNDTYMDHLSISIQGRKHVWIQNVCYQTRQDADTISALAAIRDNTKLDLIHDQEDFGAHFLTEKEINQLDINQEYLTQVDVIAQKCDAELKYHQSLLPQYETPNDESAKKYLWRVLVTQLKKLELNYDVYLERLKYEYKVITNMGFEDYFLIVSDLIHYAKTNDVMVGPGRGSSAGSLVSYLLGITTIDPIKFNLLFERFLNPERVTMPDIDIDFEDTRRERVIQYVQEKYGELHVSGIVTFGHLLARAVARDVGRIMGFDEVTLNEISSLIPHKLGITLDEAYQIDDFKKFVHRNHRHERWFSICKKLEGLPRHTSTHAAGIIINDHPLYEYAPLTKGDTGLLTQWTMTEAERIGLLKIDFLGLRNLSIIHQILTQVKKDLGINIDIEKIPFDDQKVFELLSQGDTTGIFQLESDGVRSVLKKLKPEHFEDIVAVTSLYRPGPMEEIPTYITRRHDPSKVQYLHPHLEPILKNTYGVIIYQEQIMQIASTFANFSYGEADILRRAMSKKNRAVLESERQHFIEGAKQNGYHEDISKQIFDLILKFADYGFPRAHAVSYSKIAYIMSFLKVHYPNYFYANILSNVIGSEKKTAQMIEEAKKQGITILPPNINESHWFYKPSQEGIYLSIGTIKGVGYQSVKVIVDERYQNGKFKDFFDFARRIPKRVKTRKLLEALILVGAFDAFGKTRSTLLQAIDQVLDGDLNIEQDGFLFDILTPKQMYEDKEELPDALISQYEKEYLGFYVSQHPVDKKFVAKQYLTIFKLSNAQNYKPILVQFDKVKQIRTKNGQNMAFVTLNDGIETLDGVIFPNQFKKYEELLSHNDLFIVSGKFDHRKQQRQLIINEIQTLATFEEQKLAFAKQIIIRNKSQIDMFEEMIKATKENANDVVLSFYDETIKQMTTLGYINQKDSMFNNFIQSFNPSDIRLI", "test": "biochemical", "type": "biochemical", "procedure,_shortened": "as §1"}, "[4]": {"system": "Escherichia coli MB5747 (LS 883, tolC)", "test": "microbe, parasite or virus in culture", "type": "cell-based", "details": "* = some reduction of growth versus control at […]; for MIC: Escherichia coli, read-out: E. coli LS883 tolC (MIC), MHII broth"}, "[5]": {"system": "Pseudomonas aeruginosa MB5890 (CB1101, efflux-deleted)", "test": "microbe, parasite or virus in culture", "type": "cell-based", "details": "* = some reduction of growth versus control at […]; for MIC: Pseudomonas aeruginosa, read-out: P. aeruginosa MB5890 efflux-del (MIC), MHII broth"}, "[6]": {"system": "Staphylococcus aureus MB6266 (MRSA COL)", "test": "Nargenicin antibacterial assay (MIC), S. aureus", "type": "cell-based", "details": "* = some reduction of growth versus control at […]; for MIC: Staphylococcus aureus, MRSA, read-out: S. aureus COL (MIC), MHII broth + 50% human serum"}, "[7]": {"system": "Streptococcus pneumoniae MB6357 (CL 2883)", "test": "Nargenicin antibacterial assay (MIC), S. pneumoniae", "type": "cell-based", "details": "* = some reduction of growth versus control at […]; for MIC: Streptococcus pneumoniae, read-out: S. pneumoniae MB2883 (MIC), Isosensitest broth"}, "[8]": {"details": "read-out: E. coli DnaE IC50 (converted)"}}, "note": "Where two headings read alike, the source gives them in different places."}
{"compound": "CO[C@H]1CC2C=C[C@H]3[C@H]4O[C@]2(/C(C)=C/[C@@H](C)[C@@H](C(C)O)OC1=O)[C@@H]3[C@H](O)[C@@H](C)[C@H]4OC(=O)c1cccn1C(=O)C(C)C", "note": "(some centres unmarked) [Example 204]", "values": [{"measurement": "MICs compared with nargenicin", "setting": "[1]; M. tuberculosis clinical isolates (MTB panel)", "result": "equal to or better than nargenicin"}]}
{"compound": "CO[C@H]1C[C@H]2C=CC3C4[C@H](O)[C@@H](C)[C@@H](OC(=O)c5ccc[nH]5)[C@@H]3O[C@]42/C(C)=C/[C@@H](C)[C@@H]([C@@H](C)OC(=O)C(=O)N2CCOCC2)OC1=O", "note": "[Example 118]", "values": [{"measurement": "E. coli DnaE IC50", "setting": "[2]", "result": ">100", "unit": "µg/mL"}, {"measurement": "S. aureus DnaE IC50", "setting": "[3]", "result": 0.004, "unit": "µg/mL"}, {"measurement": "E. coli LS883 tolC (MIC)", "setting": "[4]; MHII broth", "result": 1, "unit": "µg/mL"}, {"measurement": "P. aeruginosa MB5890 efflux-del (MIC)", "setting": "[5]; MHII broth", "result": 32, "unit": "µg/mL"}, {"measurement": "S. aureus COL (MIC)", "setting": "[6]; MHII broth + 50% human serum", "result": 0.5, "unit": "µg/mL"}, {"measurement": "S. pneumoniae MB2883 (MIC)", "setting": "[7]; Isosensitest broth", "result": 128, "unit": "µg/mL"}, {"measurement": "MICs compared with nargenicin", "setting": "[1]", "result": "equal to or better than nargenicin"}]}
{"compound": "CO[C@H]1CC2C=C[C@H]3[C@H]4O[C@]2(/C(C)=C/[C@@H](C)[C@@H](C(C)NC2CC2)OC1=O)[C@@H]3[C@H](O)[C@@H](C)[C@H]4OC(=O)c1ccc[nH]1", "note": "(some centres unmarked) [Example 185]", "values": [{"measurement": "IC50", "setting": "[2]; [8]", "result": "> 180", "unit": "µM"}, {"measurement": "IC50", "setting": "[3]; S. aureus DnaE IC50", "result": "< 0.0108", "unit": "µM"}, {"measurement": "MIC", "setting": "[4]", "result": "> 128", "unit": "µg/mL"}, {"measurement": "MIC", "setting": "[5]", "result": "> 128", "unit": "µg/mL"}, {"measurement": "MIC", "setting": "[6]", "result": "> 128", "unit": "µg/mL"}, {"measurement": "MIC", "setting": "[7]", "result": "> 128", "unit": "µg/mL"}]}
{"compound": "CO[C@H]1CC2C=C[C@H]3[C@H]4O[C@]2(/C(C)=C/[C@@H](C)[C@@H]([C@@H](C)O)OC1=O)[C@@H]3[C@H](OC(=O)NS(=O)(=O)c1ccccc1)[C@@H](C)[C@H]4OC(=O)c1ccc[nH]1", "note": "(stereo partly drawn) [Example 40, (3R,4S,7S,10aR,11R,12R,13R,14R,14aS,14bS,E)-4-((R)-1-hydroxyethyl)-7-methoxy-1,3,13-trimethyl-6-oxo-14-(((phenylsulfonyl)carbamoyl)oxy)-3,4,6,7,8,8a,10a,11,12,13,14,14a-dodecahydro-11,14b-epoxynaphtho[2,1-e]oxecin-12-yl 1H-pyrrole-2-carboxylate]", "values": [{"measurement": "IC50", "setting": "[2]; [8]", "result": "> 143", "unit": "µM"}, {"measurement": "IC50", "setting": "[3]; S. aureus DnaE IC50", "result": 1.57, "unit": "µM"}, {"measurement": "MIC", "setting": "[4]", "result": "> 128", "unit": "µg/mL"}, {"measurement": "MIC", "setting": "[5]", "result": "> 128", "unit": "µg/mL"}, {"measurement": "MIC", "setting": "[6]", "result": "> 128", "unit": "µg/mL"}, {"measurement": "MIC", "setting": "[7]", "result": "> 128", "unit": "µg/mL"}]}
{"compound": "CO[C@H]1C[C@H]2C=C[C@H]3[C@H]4O[C@]2(/C(C)=C/[C@@H](C)[C@@H]([C@@H](C)O)OC1=O)[C@@H]3[C@H](O)C(C)[C@@H]4CO", "note": "(stereo partly drawn) [Example 163, (3R,4S,7S,8aS,10aR,11R,12R,14R,14aS,14bS,E)-14-hydroxy-4-((R)-1-hydroxyethyl)-12-(hydroxymethyl)-7-methoxy-1,3,13-trimethyl-3,4,8,8a,10a,11,12,13,14,14a-decahydro-11,14b-epoxynaphtho[2,1-e]oxecin-6(7H)-one]", "values": [{"measurement": "IC50", "setting": "[2]; E. coli DnaE IC50", "result": "> 229", "unit": "µM"}, {"measurement": "IC50", "setting": "[3]; read-out: S. aureus DnaE IC50 (converted)", "result": 0.687, "unit": "µM"}, {"measurement": "MIC", "setting": "[4]", "result": 8, "unit": "µg/mL"}, {"measurement": "MIC", "setting": "[5]", "result": 8, "unit": "µg/mL"}, {"measurement": "MIC", "setting": "[6]", "result": "> 128", "unit": "µg/mL"}, {"measurement": "MIC", "setting": "[7]", "result": "> 128", "unit": "µg/mL"}]}
{"compound": "CO[C@H]1C[C@H]2C=CC3C4[C@H](O)[C@@H](C)[C@@H](OC(=O)c5ccc(OC(C)=O)n5O)[C@@H]3O[C@]42/C(C)=C/[C@@H](C)[C@@H]([C@@H](C)O)OC1=O", "note": "[Example 173]", "values": [{"measurement": "IC50", "setting": "[2]; [8]", "result": "> 170", "unit": "µM"}, {"measurement": "IC50", "setting": "[3]; S. aureus DnaE IC50", "result": 0.543, "unit": "µM"}, {"measurement": "MIC", "setting": "[4]", "result": 8, "unit": "µg/mL"}, {"measurement": "MIC", "setting": "[5]", "result": 16, "unit": "µg/mL"}, {"measurement": "MIC", "setting": "[6]", "result": "> 128", "unit": "µg/mL"}, {"measurement": "MIC", "setting": "[7]", "result": 128, "unit": "µg/mL"}]}
{"compound": "COC(=O)/C=C/c1c[nH]c(C(=O)O[C@@H]2[C@H](C)[C@@H](O)[C@@H]3[C@H]4C=CC5C[C@H](OC)C(=O)O[C@H](C(C)O)[C@H](C)/C=C(\\C)[C@]53O[C@H]42)c1", "note": "(some centres unmarked) [Example 166]", "values": [{"measurement": "IC50", "setting": "[2]; [8]", "result": "> 83.4", "unit": "µM"}, {"measurement": "IC50", "setting": "[3]; S. aureus DnaE IC50", "result": 0.3, "unit": "µM"}, {"measurement": "MIC", "setting": "[4]", "result": 64, "unit": "µg/mL"}, {"measurement": "MIC", "setting": "[5]", "result": "> 64", "unit": "µg/mL"}, {"measurement": "MIC", "setting": "[6]", "result": "> 64", "unit": "µg/mL"}, {"measurement": "MIC", "setting": "[7]", "result": "> 64", "unit": "µg/mL"}]}
{"compound": "COC1CC2C=CC3C4OC2(C(C)=CC(C)C(C(C)OC(=O)OCCN(CCO)CCO)OC1=O)C3C(O)C(C)C4OC(=O)c1ccc[nH]1", "note": "(centres unmarked) [Example 32]", "values": [{"measurement": "IC50", "setting": "[2]; [8]", "result": "> 145", "unit": "µM"}, {"measurement": "IC50", "setting": "[3]; S. aureus DnaE IC50", "result": "~0.00651", "unit": "µM"}, {"measurement": "MIC", "setting": "[4]", "result": 2, "unit": "µg/mL"}, {"measurement": "MIC", "setting": "[5]", "result": 64, "unit": "µg/mL"}, {"measurement": "MIC", "setting": "[6]", "result": 2, "unit": "µg/mL"}, {"measurement": "MIC", "setting": "[7]", "result": "> 128", "unit": "µg/mL"}]}
